Data reported in US20150148234A1, “HERBICIDE-RESISTANT SUNFLOWER PLANTS WITH MULTIPLE HERBICIDE RESISTANT ALLELES OF AHASL1 AND METHODS OF USE” (NIDERA S.A., priority 2013, published 2015).

Tests used:
[1] = test system: sunflower entry 1-hybrid (WT × IMI restorer, A205V hetero); assay: field phytotoxicity trial North Dakota 2006 (Example 3); assay type: in vivo
Method: (§1) • Spray volume: 10 gallons per acre (GPA) (or 100 liters/ha) for backpack sprayer or 20 GPA (or 200 liters/ha) for tractor mounted boom • Growth Stage at Herbicide Application: 2-4 leaves • Entry 15 (WT Maintainer line) was left unsprayed in all treatment blocks.
(§2) Phytotoxicity ratings were assessed at 7 and 21 days following herbicide application.
(§3) The data was subjected to an ANOVA analysis and the means from the 3 repetitions are presented in Table 7 (phytotoxicity at 7 days post-treatment) and Table 8 (phytotoxicity at 21 days post-treatment).

[2] = test system: sunflower entry 10-hybrid (IMI CMS × GM40 restorer, A205V/A122T hetero/double); assay: as above; assay type: in vivo
Method: as §1, §2, §3

[3] = test system: sunflower entry 11-hybrid (GM40 CMS × IMI restorer, A205V/A122T hetero/double); assay: as above; assay type: in vivo
Method: as §1, §2, §3

[4] = test system: sunflower entry 12-hybrid (IMI CMS × GM40 restorer, A205V/A122T hetero/double); assay: as above; assay type: in vivo
Method: as §1, §2, §3

[5] = test system: sunflower entry 13-hybrid (GM40 CMS × GM40 restorer, A122T homo); assay: as above; assay type: in vivo
Method: as §1, §2, §3

[6] = test system: sunflower entry 14-hybrid (GM40 CMS × GM40 restorer, A122T homo); assay: as above; assay type: in vivo
Method: as §1, §2, §3

[7] = test system: sunflower entry 15-hybrid (WT × GM40 restorer, A122T hetero); assay: as above; assay type: in vivo
Method: as §1, §2, §3

[8] = test system: sunflower entry 16-hybrid (WT × GM40 restorer, A122T hetero); assay: as above; assay type: in vivo
Method: as §1, §2, §3

[9] = test system: sunflower entry 3-hybrid (WT × IMI restorer, A205V hetero); assay: as above; assay type: in vivo
Method: as §1, §2, §3

[10] = test system: sunflower entry 4-line (IMI Restorer, A205V homo); assay: as above; assay type: in vivo
Method: as §1, §2, §3

[11] = test system: sunflower entry 6-hybrid (IMI CMS × IMI restorer, A205V homo); assay: as above; assay type: in vivo
Method: as §1, §2, §3

[12] = test system: sunflower entry 7-hybrid (WT-CMS × IMI restorer, A205V hetero); assay: as above; assay type: in vivo
Method: as §1, §2, §3

[13] = test system: sunflower entry 8-hybrid (WT × GM40 restorer, A122T hetero); assay: as above; assay type: in vivo
Method: as §1, §2, §3

[14] = test system: sunflower entry 9-line (GM40 restorer, A122T homo); assay: as above; assay type: in vivo
Method: as §1, §2, §3

[15] = test system: AHAS enzyme of A122T homozygous hybrid (cmsGM40 × R733); assay: AHAS enzyme activity assay, Set 1; assay type: biochemical, sunflower; settings: 100 μM, Set 1 (FIG. 13)
Method: (§4) Twelve greenhouse grown sunflower plants from each of the lines depicted in Table 21 were bulked and subjected to an AHAS enzyme activity assay via the method of Singh et al. (1988) Anal. Biochem. 171:173-179. Each activity assay was repeated twice. Due to the large number of samples, the experiment was split into two sets (Table 21).
(§5) Young, actively growing leaves, from four week old plantlets, were ground in a mortar and pestle with liquid N2 and extracted with a buffer composed of 100 mM Pyruvate, 200 mM KH2PO4, 20 mM MgCl2, 2 mM thiamine pyrophosphate and […]. Plant extracts were then spun through a 10 mL Zeba™ TM desalt spin column (Pierce #89893) as per the manufacturer's recommendation. The inhibition assay was performed as described by Singh et al. (1988) Anal. Biochem. 171:173-179. Assays were conducted in a 96-well format. Fifty μl of inhibitor was added to each well containing 50 μl of soluble protein extract to give final concentrations of 0.78, 1.56, 3.125, 6.25, 12.5, 25, 50 and 100 μM imazamox or 0.78, 1.56, 3.125, 6.25, 12.5, 25, 50 and 100 μM imazapyr. Zero herbicide controls were also included for each line. Reactions were processed as outlined by Singh et al. (1988) Anal. Biochem. 171:173-179. Absorbance was measured at 530 nm. AHAS activity, expressed as the mean of the absorbance values for each treatment, was presented as a percentage of the mean of the zero-herbicide controls.

[16] = test system: AHAS enzyme of A122T/A205V heterozygous hybrid (IA9 × R733); assay: AHAS enzyme activity assay, Set 1; assay type: biochemical, sunflower; settings: 100 μM, Set 1 (FIG. 13)
Method: as §4, §5

[17] = test system: AHAS enzyme of A205V homozygous hybrid (IA9 × RHA426); assay: AHAS enzyme activity assay, Set 1; assay type: biochemical, sunflower; settings: A205V homozygous hybrids; 100 μM; Set 1 (FIG. 13)
Method: as §4, §5

[18] = 7 DAT, 160 g ai/ha imazapyr + 0.25% NIS
[19] = 21 DAT, 160 g ai/ha imazapyr + 0.25% NIS
[20] = 7 DAT, 50 g ai/ha imazamox + 0.25% NIS
[21] = 7 DAT, 100 g ai/ha imazamox + 0.25% NIS
[22] = 7 DAT, 200 g ai/ha imazamox + 0.25% NIS
[23] = 21 DAT, 50 g ai/ha imazamox + 0.25% NIS
[24] = 21 DAT, 100 g ai/ha imazamox + 0.25% NIS
[25] = 21 DAT, 200 g ai/ha imazamox + 0.25% NIS

## CC(C)C1(C)N=C(c2ncccc2C(=O)O)NC1=O (stereo not shown) [imazapyr]
[1]; [18]
  Phytotoxicity Rating (% Crop Injury): 16.7%
[1]; [19]
  Phytotoxicity Rating (% Crop Injury): 20.0%
[2]; [18]
  Phytotoxicity Rating (% Crop Injury): 3.3%
[2]; [19]
  Phytotoxicity Rating (% Crop Injury): 0.0%
[3]; [18]
  Phytotoxicity Rating (% Crop Injury): 3.3%
[3]; [19]
  Phytotoxicity Rating (% Crop Injury): 0.0%
[4]; [18]
  Phytotoxicity Rating (% Crop Injury): 5.0%
[4]; [19]
  Phytotoxicity Rating (% Crop Injury): 1.7%
[5]; [18]
  Phytotoxicity Rating (% Crop Injury): 5.0%
[5]; [19]
  Phytotoxicity Rating (% Crop Injury): 1.7%
[6]; [18]
  Phytotoxicity Rating (% Crop Injury): 8.3%
[6]; [19]
  Phytotoxicity Rating (% Crop Injury): 3.3%
[7]; [18]
  Phytotoxicity Rating (% Crop Injury): 8.3%
[7]; [19]
  Phytotoxicity Rating (% Crop Injury): 21.7%
[8]; [18]
  Phytotoxicity Rating (% Crop Injury): 10.0%
[8]; [19]
  Phytotoxicity Rating (% Crop Injury): 23.3%
[9]; [18]
  Phytotoxicity Rating (% Crop Injury): 35.0%
[9]; [19]
  Phytotoxicity Rating (% Crop Injury): 43.3%
[10]; [18]
  Phytotoxicity Rating (% Crop Injury): 11.7%
[10]; [19]
  Phytotoxicity Rating (% Crop Injury): 6.7%
[11]; [18]
  Phytotoxicity Rating (% Crop Injury): 8.3%
[11]; [19]
  Phytotoxicity Rating (% Crop Injury): 3.3%
[12]; [18]
  Phytotoxicity Rating (% Crop Injury): 21.7%
[12]; [19]
  Phytotoxicity Rating (% Crop Injury): 36.7%
[13]; [18]
  Phytotoxicity Rating (% Crop Injury): 13.3%
[13]; [19]
  Phytotoxicity Rating (% Crop Injury): 11.7%
[14]; [18]
  Phytotoxicity Rating (% Crop Injury): 8.3%
[14]; [19]
  Phytotoxicity Rating (% Crop Injury): 5.0%
[15]
  AHAS activity, % of untreated control: 64%
[16]
  AHAS activity, % of untreated control: 60%
[17]
  AHAS activity, % of untreated control: 42%

## COCc1cnc(C2=NC(C)(C(C)C)C(=O)N2)c(C(=O)O)c1 (stereo not shown) [imazamox]
[1]; [20]
  Phytotoxicity Rating (% Crop Injury): 8.3%
[1]; [21]
  Phytotoxicity Rating (% Crop Injury): 35.0%
[1]; [22]
  Phytotoxicity Rating (% Crop Injury): 48.3%
[1]; [23]
  Phytotoxicity Rating (% Crop Injury): 6.7%
[1]; [24]
  Phytotoxicity Rating (% Crop Injury): 25.0%
[1]; [25]
  Phytotoxicity Rating (% Crop Injury): 73.3%
[2]; [20]
  Phytotoxicity Rating (% Crop Injury): 3.3%
[2]; [21]
  Phytotoxicity Rating (% Crop Injury): 3.3%
[2]; [22]
  Phytotoxicity Rating (% Crop Injury): 10.0%
[2]; [23]
  Phytotoxicity Rating (% Crop Injury): 0.0%
[2]; [24]
  Phytotoxicity Rating (% Crop Injury): 0.0%
[2]; [25]
  Phytotoxicity Rating (% Crop Injury): 1.7%
[3]; [20]
  Phytotoxicity Rating (% Crop Injury): 0.0%
[3]; [21]
  Phytotoxicity Rating (% Crop Injury): 3.3%
[3]; [22]
  Phytotoxicity Rating (% Crop Injury): 11.7%
[3]; [23]
  Phytotoxicity Rating (% Crop Injury): 0.0%
[3]; [24]
  Phytotoxicity Rating (% Crop Injury): 0.0%
[3]; [25]
  Phytotoxicity Rating (% Crop Injury): 3.3%
[4]; [20]
  Phytotoxicity Rating (% Crop Injury): 10.0%
[4]; [21]
  Phytotoxicity Rating (% Crop Injury): 10.0%
[4]; [22]
  Phytotoxicity Rating (% Crop Injury): 11.7%
[4]; [23]
  Phytotoxicity Rating (% Crop Injury): 3.3%
[4]; [24]
  Phytotoxicity Rating (% Crop Injury): 3.3%
[4]; [25]
  Phytotoxicity Rating (% Crop Injury): 3.3%
[5]; [20]
  Phytotoxicity Rating (% Crop Injury): 3.3%
[5]; [21]
  Phytotoxicity Rating (% Crop Injury): 5.0%
[5]; [22]
  Phytotoxicity Rating (% Crop Injury): 10.0%
[5]; [23]
  Phytotoxicity Rating (% Crop Injury): 0.0%
[5]; [24]
  Phytotoxicity Rating (% Crop Injury): 1.7%
[5]; [25]
  Phytotoxicity Rating (% Crop Injury): 3.3%
[6]; [20]
  Phytotoxicity Rating (% Crop Injury): 5.0%
[6]; [21]
  Phytotoxicity Rating (% Crop Injury): 6.7%
[6]; [22]
  Phytotoxicity Rating (% Crop Injury): 11.7%
[6]; [23]
  Phytotoxicity Rating (% Crop Injury): 0.0%
[6]; [24]
  Phytotoxicity Rating (% Crop Injury): 3.3%
[6]; [25]
  Phytotoxicity Rating (% Crop Injury): 5.0%
[7]; [20]
  Phytotoxicity Rating (% Crop Injury): 10.0%
[7]; [21]
  Phytotoxicity Rating (% Crop Injury): 11.7%
[7]; [22]
  Phytotoxicity Rating (% Crop Injury): 16.7%
[7]; [23]
  Phytotoxicity Rating (% Crop Injury): 6.7%
[7]; [24]
  Phytotoxicity Rating (% Crop Injury): 11.7%
[7]; [25]
  Phytotoxicity Rating (% Crop Injury): 30.0%
[8]; [20]
  Phytotoxicity Rating (% Crop Injury): 10.0%
[8]; [21]
  Phytotoxicity Rating (% Crop Injury): 15.0%
[8]; [22]
  Phytotoxicity Rating (% Crop Injury): 23.3%
[8]; [23]
  Phytotoxicity Rating (% Crop Injury): 6.7%
[8]; [24]
  Phytotoxicity Rating (% Crop Injury): 16.7%
[8]; [25]
  Phytotoxicity Rating (% Crop Injury): 31.7%
[9]; [20]
  Phytotoxicity Rating (% Crop Injury): 11.7%
[9]; [21]
  Phytotoxicity Rating (% Crop Injury): 46.7%
[9]; [22]
  Phytotoxicity Rating (% Crop Injury): 60.0%
[9]; [23]
  Phytotoxicity Rating (% Crop Injury): 11.7%
[9]; [24]
  Phytotoxicity Rating (% Crop Injury): 46.7%
[9]; [25]
  Phytotoxicity Rating (% Crop Injury): 76.7%
[10]; [20]
  Phytotoxicity Rating (% Crop Injury): 6.7%
[10]; [21]
  Phytotoxicity Rating (% Crop Injury): 6.7%
[10]; [22]
  Phytotoxicity Rating (% Crop Injury): 18.3%
[10]; [23]
  Phytotoxicity Rating (% Crop Injury): 5.0%
[10]; [24]
  Phytotoxicity Rating (% Crop Injury): 6.7%
[10]; [25]
  Phytotoxicity Rating (% Crop Injury): 15.0%
[11]; [20]
  Phytotoxicity Rating (% Crop Injury): 5.0%
[11]; [21]
  Phytotoxicity Rating (% Crop Injury): 8.3%
[11]; [22]
  Phytotoxicity Rating (% Crop Injury): 26.7%
[11]; [23]
  Phytotoxicity Rating (% Crop Injury): 0.0%
[11]; [24]
  Phytotoxicity Rating (% Crop Injury): 3.3%
[11]; [25]
  Phytotoxicity Rating (% Crop Injury): 21.7%
[12]; [20]
  Phytotoxicity Rating (% Crop Injury): 13.3%
[12]; [21]
  Phytotoxicity Rating (% Crop Injury): 43.3%
[12]; [22]
  Phytotoxicity Rating (% Crop Injury): 56.7%
[12]; [23]
  Phytotoxicity Rating (% Crop Injury): 3.3%
[12]; [24]
  Phytotoxicity Rating (% Crop Injury): 40.0%
[12]; [25]
  Phytotoxicity Rating (% Crop Injury): 78.3%
[13]; [20]
  Phytotoxicity Rating (% Crop Injury): 13.3%
[13]; [21]
  Phytotoxicity Rating (% Crop Injury): 13.3%
[13]; [22]
  Phytotoxicity Rating (% Crop Injury): 25.0%
[13]; [23]
  Phytotoxicity Rating (% Crop Injury): 6.7%
[13]; [24]
  Phytotoxicity Rating (% Crop Injury): 11.7%
[13]; [25]
  Phytotoxicity Rating (% Crop Injury): 28.3%
[14]; [20]
  Phytotoxicity Rating (% Crop Injury): 1.7%
[14]; [21]
  Phytotoxicity Rating (% Crop Injury): 5.0%
[14]; [22]
  Phytotoxicity Rating (% Crop Injury): 10.0%
[14]; [23]
  Phytotoxicity Rating (% Crop Injury): 0.0%
[14]; [24]
  Phytotoxicity Rating (% Crop Injury): 0.0%
[14]; [25]
  Phytotoxicity Rating (% Crop Injury): 3.3%
[15]
  AHAS activity, % of untreated control: 69%
[16]
  AHAS activity, % of untreated control: 59%
[17]
  AHAS activity, % of untreated control: 36%
